In patent US8258138B2, “Potassium channel blockers” (Xention Limited, priority 2008, dated 2012):

Molecular target: T1, human Kv1.3 (Homo sapiens, UniProt P22001)
T1 construct: expressed in transfected cells; host or cells: stably transfected cells grown in medium for CHO cells
Assay: Kv1.3 Autopatch electrophysiology (whole cell patch-clamp, inhibition of charge movement)
Format: cell-based
Details: compound at 1 μM, cells stably transfected with human Kv1.3, room temperature, total charge during step to +30 mV relative to control; for inhibition at 1 µM: read-out: hKv1.3 % inh.
Protocol: Kv1.3 Autopatch Electrophysiology Method
Compounds were tested on these cells using the AutoPatch technology in whole cell mode.
The external bathing solution contained (in mM): 150 NaCl, 10 KCl, 1 MgCl2, 3 CaCl2, 10 HEPES, pH 7.4 with NaOH. Patch pipettes were filled with an electrode solution of composition (in mM): 100 K-Gluconate, 20 KCl, 1 MgCl2, 1 CaCl2, 10 HEPES, 11 EGTA, 5 ATP-Na2, 2 Glutathione pH 7.2 with KOH.
Compounds were dissolved in DMSO (100%) and made up in the external bather at a concentration of 1 μM immediately prior to use. All experiments were conducted at room temperature.
A cell suspension (10 ml), with a density of 6×10^6 cells, was aliquoted into a 15 ml centrifuge tube and stored at 4° C. before use. Prior to use a tube was taken and centrifuged at 1000 rpm for 4 mins at room temperature. The supernatant was then discarded, leaving a cell pellet at the bottom of the tube. The pellet was then resuspended using 1 ml of cold (4° C.), filtered (0.22 μm), 0.05% BSA/bather solution (0.05 g BSA/100 ml bather). The bottom of the tube was manually agitated followed by gentle tituration. The cell suspension was then placed in the AutoPatch™ temperature controlled cell-hotel at 14° C. and regularly titurated.
A length of Teflon capillary tubing was dipped into the cell suspension solution, and a column of fluid was taken up by negative pressure. The column of fluid was in electrically connectivity with a Ag/AgCl reference electrode. Borosilicate glass patch pipettes (from 1.5 mm OD, thin-walled filamented, GC150-TF capillary glass, Harvard) were pulled using a DMZ pipette puller (Zeitz Instruments), and were back-filled using the internal pipette solution, being careful that no bubbles remained at the tip or in the body of the pipette. Patch pipettes typically had resistances of 2.5-3.5 MΩ. Once filled, the pipette tip and a proportion of the shaft (˜15 mm) were dipped into Sigmacote (Sigma). The recording pipettes were placed in a multiwell array and mounted on the AutoPatch™ machine. Automated patch-clamping and drug-application was initiated by the operator, but thereafter AutoPatch.exe continued the experiment providing that pre-set conditions and criteria were satisfied.
Whole cell patch-clamp recordings were made using the AutoPatch™ rig, which incorporated an EPC9 or EPC10 amplifier (HEKA, Germany) under control of Pulse software (v8.54 or v8.76, HEKA, Germany), a cell applicator, automated drug application system (DAS), valve controller (VF1) and a suction device all at room temperature. This equipment was completely under the control of AutoPatch.exe and operator intervention was only made when there was a requirement to refill the bather reservoirs or to prevent the loss of a cell due to a technical error.
Cells were continuously perfused with external solution at a flow rate of ˜2 ml/minute.
Electrophysiology voltage-step protocols and analysis of data was performed as follows. Data were sampled at 5 kHz, and filtered with a −3 dB bandwidth of 2.5 kHz. Cells were held at a voltage of −80 mV. Currents were evoked by a voltage step to +30 mV for 500 ms in duration applied every 15 s. Online analysis of the hKv1.3 current during the application of compounds was performed by the Pulse (v8.54 or v8.76, HEKA, Germany), Excel (Microsoft, USA) and AutoPatch™ software, with the total charge measured during the whole of voltage step. Inhibition of charge movement in the presence of drug was calculated relative to control.

T1 sequence (P22001 whole entry): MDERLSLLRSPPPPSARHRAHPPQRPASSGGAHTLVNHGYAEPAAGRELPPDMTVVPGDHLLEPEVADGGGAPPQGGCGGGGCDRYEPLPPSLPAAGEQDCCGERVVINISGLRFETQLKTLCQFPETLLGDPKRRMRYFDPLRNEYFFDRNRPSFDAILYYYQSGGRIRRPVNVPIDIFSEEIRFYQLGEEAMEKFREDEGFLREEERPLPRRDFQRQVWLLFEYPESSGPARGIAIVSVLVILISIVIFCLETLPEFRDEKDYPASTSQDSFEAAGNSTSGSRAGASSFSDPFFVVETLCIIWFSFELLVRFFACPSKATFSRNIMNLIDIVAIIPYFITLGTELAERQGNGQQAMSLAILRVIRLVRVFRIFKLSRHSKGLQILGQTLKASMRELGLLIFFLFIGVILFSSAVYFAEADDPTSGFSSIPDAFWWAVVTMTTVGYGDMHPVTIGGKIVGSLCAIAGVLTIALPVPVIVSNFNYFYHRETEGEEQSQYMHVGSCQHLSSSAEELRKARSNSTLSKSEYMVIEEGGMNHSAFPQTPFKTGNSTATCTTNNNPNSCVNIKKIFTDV

Compound: CC1CCN(C(=O)c2ccc(N(Cc3ccc(Cl)cc3)S(=O)(=O)c3cn(C)cn3)cc2)C1 (stereo not drawn) [Example 99, 1-Methyl-1H-imidazole-4-sulfonic acid (4-chloro-benzyl)-[4-(3-methyl-pyrrolidine-1-carbonyl)-phenyl]-amide]
- inhibition at 1 µM: 52%

Compound: Cn1cnc(S(=O)(=O)N(Cc2ccccc2)c2ccc(C(=O)N3CCC(c4ccc(F)cc4)C3)cc2)c1 (stereo not drawn) [Example 82, 1-Methyl-1H-imidazole-4-sulfonic acid benzyl-{4-[3-(4-fluoro-phenyl)-pyrrolidine-1-carbonyl]-phenyl}-amide]
- inhibition at 1 µM: 78%

Compound: N#Cc1ccc(CN(c2ccc(C(=O)N3CCN(c4ccccc4)CC3)cc2)S(=O)(=O)c2ccccc2)cc1 [Example 2, N-(4-Cyano-benzyl)-N-[4-(4-phenyl-piperazine-1-carbonyl)-phenyl]-benzenesulfonamide]
- inhibition at 1 µM: 76%

Compound: N#Cc1ccccc1CN(c1ccc(C(=O)N2CCN(c3ccccc3)CC2)cc1)S(=O)(=O)c1ccccc1 [Example 38, N-(2-Cyano-benzyl)-N-[4-(4-phenyl-piperazine-1-carbonyl)-phenyl]-benzenesulfonamide]
- inhibition at 1 µM: 50%

Compound: CN(C)S(=O)(=O)N(Cc1ccccc1)c1ccc(C(=O)N2CCC(O)(c3ccccc3)CC2)cc1 [Example 71, N-Benzyl-N′N′-dimethyl-N-[4-(4-hydroxy-4-phenyl-piperidine-1-carbonyl)-phenyl]-sulfamide]
- hKv1.3 % inh.: 27%

Compound: O=C(c1ccc(N(Cc2ccccc2)S(=O)(=O)c2ccccc2)cc1)N1CCC(O)(c2ccccc2)CC1 [Example 58, N-Benzyl-N-[4-(4-hydroxy-4-phenyl-piperidine-1-carbonyl)-phenyl]benzenesulfonamide]
- inhibition at 1 µM: 81%

Compound: CC1CCCN(C(=O)c2ccc(N(Cc3ccc(Cl)cc3)S(=O)(=O)c3cn(C)cn3)cc2)C1 (stereo not drawn) [Example 92, 1-Methyl-1H-imidazole-4-sulfonic acid (4-chloro-benzyl)-[4-(3-methyl-piperidine-1-carbonyl)-phenyl]-amide]
- inhibition at 1 µM: 61%

Compound: CC(C)c1noc(C2CCCN(C(=O)c3ccc(N(Cc4ccccc4)S(=O)(=O)N(C)C)cc3)C2)n1 (stereo not drawn) [Example 69, N-Benzyl-N′N′-dimethyl-N-{4-[3-(3-isopropyl-[1,2,4]oxadiazol-5-yl)-piperidine-1-carbonyl]-phenyl}-sulfamide]
- hKv1.3 % inh.: 31%

Compound: CN(C)S(=O)(=O)N(Cc1ccccc1)c1ccc(C(=O)N2CCC(Oc3ccccc3)CC2)cc1 [Example 72, N-Benzyl-N′N′-dimethyl-N-[4-(4-phenoxy-piperidine-1-carbonyl)-phenyl]-sulfamide]
- hKv1.3 % inh.: 68%

Compound: Cn1ccc(S(=O)(=O)N(Cc2ccc(Cl)cc2)c2ccc(C(=O)N3CCCCC3)cc2)n1 [Example 86, 1-Methyl-1H-pyrazole-3-sulfonic acid (4-chloro-benzyl)-[4-(piperidine-1-carbonyl)-phenyl]-amide]
- inhibition at 1 µM: 88%

Compound: COc1cccc(CN(c2ccc(C(=O)N3CCN(c4ccccc4)CC3)cc2)S(=O)(=O)c2cn(C)cn2)c1 [Example 45, 1-Methyl-1H-imidazole-4-sulfonic acid (3-methoxy-benzyl)-[4-(4-phenyl-piperazine-1-carbonyl)-phenyl]-amide]
- inhibition at 1 µM: 54%

Compound: 1-Methyl-1H-imidazole-4-sulfonic acid benzyl-[4-(3-phenyl-piperidine-1-carbonyl)-phenyl]-amide [Example 64]
- hKv1.3 % inh.: 86%

Compound: Cc1ccc(CN(c2ccc(C(=O)N3CCCC(C)C3)cc2)S(=O)(=O)c2cn(C)cn2)cc1 (stereo not drawn) [Example 95, 1-Methyl-1H-imidazole-4-sulfonic acid (4-methyl-benzyl)-[4-(3-methyl-piperidine-1-carbonyl)-phenyl]-amide]
- inhibition at 1 µM: 51%

Compound: CN(C)S(=O)(=O)N(Cc1ccccc1)c1ccc(C(=O)N2CCC(OCc3ccccc3)C2)cc1 (stereo not drawn) [Example 70, N-Benzyl-N′N′-dimethyl-N-[4-(3-benzyloxy-pyrrolidine-1-carbonyl)-phenyl]-sulfamide]
- hKv1.3 % inh.: 26%

Compound: O=C(c1ccc(N(Cc2ccccc2)S(=O)(=O)c2ccco2)cc1)N1CCN(c2ccccc2)CC1 [Example 41, Furan-2-sulfonic acid benzyl-[4-(4-phenyl-piperazine-1-carbonyl)-phenyl]-amide]
- inhibition at 1 µM: 81%

Compound: Cn1cnc(S(=O)(=O)N(Cc2ccc(Cl)cc2)c2ccc(C(=O)N3CCC(F)(F)C3)cc2)c1 [Example 100, 1-Methyl-1H-imidazole-4-sulfonic acid (4-chloro-benzyl)-[4-(3,3-difluoro-pyrrolidine-1-carbonyl)-phenyl]-amide]
- inhibition at 1 µM: 52%

Compound: CN1CCN(C(=O)c2ccc(N(Cc3ccccc3)S(=O)(=O)c3cn(C)cn3)cc2)CC1 [Example 7, 1-Methyl-1H-imidazole-4-sulfonic acid benzyl-[4-(4-methyl-piperazine-1-carbonyl)-phenyl]-amide]
- inhibition at 1 µM: 38%

Compound: Cn1cnc(S(=O)(=O)N(Cc2ccccc2)c2ccc(C(=O)N3CCC(F)(F)CC3)cc2)c1 [Example 79, 1-Methyl-1H-imidazole-4-sulfonic acid benzyl-[4-(4,4-difluoro-piperidine-1-carbonyl)-phenyl]-amide]
- inhibition at 1 µM: 60%

Compound: O=C(c1ccc(N(Cc2ccc(C(F)(F)F)cc2)S(=O)(=O)c2ccccc2)cc1)N1CCN(c2ccccc2)CC1 [Example 36, N-[4-(4-Phenyl-piperazine-1-carbonyl)-phenyl]-N-(4-trifluoromethyl-benzyl)-benzenesulfonamide]
- inhibition at 1 µM: 50%

Compound: O=C(c1ccc(N(Cc2ccccc2)S(=O)(=O)c2ccccc2)cc1)N1CCCCC1 [Example 3, N-Benzyl-N-[4-(piperidine-1-carbonyl)-phenyl]-benzenesulfonamide]
- inhibition at 1 µM: 94%

Compound: Cn1cnc(S(=O)(=O)N(Cc2ccccc2)c2ccc(C(=O)N3CCN(CC4CCCCC4)CC3)cc2)c1 [Example 76, 1-Methyl-1H-imidazole-4-sulfonic acid benzyl-[4-(4-cyclohexylmethyl-piperazine-1-carbonyl)-phenyl]-amide]
- inhibition at 1 µM: 45%

Compound: CC1CN(C(=O)c2ccc(N(Cc3ccccc3)S(=O)(=O)c3ccccc3)cc2)CC(C)O1 (stereo not drawn) [Example 56, N-Benzyl-N-[4-(2,6-dimethyl-morpholine-4-carbonyl)-phenyl]-benzenesulfonamide]
- inhibition at 1 µM: 42%

Compound: CC1CCCN(C(=O)c2ccc(N(Cc3ccc(F)cc3)S(=O)(=O)c3cn(C)cn3)cc2)C1 (stereo not drawn) [Example 94, 1-Methyl-1H-imidazole-4-sulfonic acid (4-fluoro-benzyl)-[4-(3-methyl-piperidine-1-carbonyl)-phenyl]-amide]
- inhibition at 1 µM: 52%

Compound: O=C(c1ccc(N(Cc2cccc(OC(F)(F)F)c2)S(=O)(=O)c2ccccc2)cc1)N1CCN(c2ccccc2)CC1 [Example 37, N-[4-(4-Phenyl-piperazine-1-carbonyl)-phenyl]-N-(3-trifluoromethoxy-benzyl)-benzenesulfonamide]
- inhibition at 1 µM: 46%

Compound: Cn1cnc(S(=O)(=O)N(Cc2ccccc2)c2ccc(C(=O)N3CCCC(C(F)(F)F)C3)cc2)c1 (stereo not drawn) [Example 78, 1-Methyl-1H-imidazole-4-sulfonic acid benzyl-[4-(3-trifluoromethyl-piperidine-1-carbonyl)-phenyl]-amide]
- inhibition at 1 µM: 74%

Compound: CN1CCN(C(=O)c2ccc(N(Cc3ccccc3)S(=O)(=O)c3cn(C)cn3)cc2)CC1c1ccccc1 (stereo not drawn) [Example 83, 1-Methyl-1H-imidazole-4-sulfonic acid benzyl-[4-(4-methyl-3-phenyl-piperazine-1-carbonyl)-phenyl]-amide]
- inhibition at 1 µM: 64%

Compound: Cn1cnc(S(=O)(=O)N(Cc2ccc(Cl)c(Cl)c2)c2ccc(C(=O)N3CCCCC3)cc2)c1 [Example 96, 1-Methyl-1H-imidazole-4-sulfonic acid (3,4-dichloro-benzyl)-[4-(piperidine-1-carbonyl)-phenyl]-amide]
- inhibition at 1 µM: 48%
